Reference: a flash point compilation (Sun et al. 2020)

Structure (SMILES) | flash point [°C]
COC(C)COC(C)=O (stereo unspecified) [2-methoxypropyl acetate] | 25.00
CNC=O [N-methylformamide] | 98.00
CCCCCCOC(C)=O [hexyl acetate] | 37.00
O=C(O)c1ccc([N+](=O)[O-])cc1 [4-nitrobenzoic acid] | 202.00
CCOS(C)(=O)=O [ethyl methanesulfonate] | 100.00
CC(=O)OCCC(C)C [3-methylbutyl acetate] | 25.00
C=CCC [but-1-ene] | -79.00
CC1CCCCC1=O (stereo unspecified) [2-methylcyclohexan-1-one] | 48.00
CC1(C)[C@@H]2CC[C@]1(C)[C@H](O)C2 [(1S,2R,4R)-1,7,7-trimethylbicyclo[2.2.1]heptan-2-ol] | 66.00
Cc1ccc(OP(=O)(Oc2ccc(C)cc2C)Oc2ccc(C)cc2C)c(C)c1 [tris(2,4-dimethylphenyl) phosphate] | 232.00
CCN(CC)C(=O)c1cccc(C)c1 [N,N-diethyl-3-methylbenzamide] | 155.00
C=O [formaldehyde] | 60.00
c1ccc(Oc2ccccc2)cc1 [phenoxybenzene] | 115.00
Nc1cc(Cl)ccc1O [2-amino-4-chlorophenol] | 170.00
Cc1cccc(N)c1C [2,3-dimethylaniline] | 97.00
CCCC(=O)Cl [butanoyl chloride] | 22.00
CC(C)CCC(C)(C)C [2,2,5-trimethylhexane] | 31.00
CC1(C)COCN1 [4,4-dimethyl-1,3-oxazolidine] | 49.00
C[Si]1(C)O[Si](C)(C)O[Si](C)(C)O[Si](C)(C)O[Si](C)(C)O1 | 73.00
CCOCC.FB(F)F [ethoxyethane;trifluoroborane] | 64.00
C=Cc1ccccc1C [1-ethenyl-2-methylbenzene] | 60.00
Cc1ccc(N)cc1N [4-methylbenzene-1,3-diamine] | 149.00
C=CCOC(Cn1ccnc1)c1ccc(Cl)cc1Cl (stereo unspecified) [1-[2-(2,4-dichlorophenyl)-2-prop-2-enoxyethyl]imidazole] | 192.00
Cc1cc(C)c(C)c(C)c1 [1,2,3,5-tetramethylbenzene] | 63.00
Nc1ccc(N)cc1 [benzene-1,4-diamine] | 155.00
CCCCCCCCCCCCCCCCCCOC(=O)CCCCCCCCCCCCCCC [octadecyl hexadecanoate] | 238.00
ClCCCCl [1,3-dichloropropane] | 21.00
c1ccc(-c2ccc(-c3ccccc3)cc2)cc1 [1,4-diphenylbenzene] | 207.00

Structure (SMILES) | flash point [°C]
CCCCCCCCC/C=C/CC1CC(=O)OC1=O (stereo unspecified) [3-[(E)-dodec-2-enyl]oxolane-2,5-dione] | 178.00
CC(C)CNCC(C)C [2-methyl-N-(2-methylpropyl)propan-1-amine] | 29.00
C1CNCCN1 [piperazine] | 88.00
COCCOCCO [2-(2-methoxyethoxy)ethanol] | 93.00
COC(C)(C)CCCC(C)C/C=C/C(C)=C/C(=O)OC(C)C (stereo unspecified) | 187.00
CC(Cl)=CCCl [1,3-dichlorobut-2-ene] | 27.00
CS(C)=O [methylsulfinylmethane] | 95.00
CCCCCCCCCCCCS [dodecane-1-thiol] | 88.00
OCCO [ethane-1,2-diol] | 111.00
CCCCC(CC)COC(=O)c1ccc(C(=O)OCC(CC)CCCC)cc1 (stereo unspecified) [bis(2-ethylhexyl) benzene-1,4-dicarboxylate] | 238.00
CC1=C[C@H]2C(=O)O[C@H]3C[C@@H](C/C=C(\C)C[C@@H](C)/C=C/C=C4\CO[C@H]([C@@H]1O)[C@@]42O)O[C@@]1(CC[C@H](C)[C@@H](C)O1)C3 | 43.00
C=C(C)C(=O)OCCC [propyl 2-methylprop-2-enoate] | 30.00
CC(C)CN [2-methylpropan-1-amine] | -9.00
COP(=S)(OC)Oc1ccc(C#N)cc1 [4-dimethoxyphosphinothioyloxybenzonitrile] | 104.00
O=P(Oc1ccccc1)(Oc1ccccc1)Oc1ccccc1 [triphenyl phosphate] | 220.00
OCCOc1ccccc1 [2-phenoxyethanol] | 121.00
CC(=O)Br [acetyl bromide] | 75.00
O=CC1CCC=CO1 (stereo unspecified) [3,4-dihydro-2H-pyran-2-carbaldehyde] | 48.00
CCOC [methoxyethane] | -37.00
C=CC [prop-1-ene] | -108.00
CCCOCCCO [3-propoxypropan-1-ol] | 53.00
CC(O)COC(C)(C)C (stereo unspecified) [1-[(2-methylpropan-2-yl)oxy]propan-2-ol] | 44.00
CC(C)(C)O [2-methylpropan-2-ol] | 11.00
ClCCCCCl [1,4-dichlorobutane] | 40.00
C1=CCCC=CCCC=CCC1 [cyclododeca-1,5,9-triene] | 71.00
CCCSC(=O)N(CCC)CCC [S-propyl N,N-dipropylcarbamothioate] | 122.00
CSC(C)(C)/C=N/O [(NE)-N-(2-methyl-2-methylsulfanylpropylidene)hydroxylamine] | 118.00

remark: another data set of the same source

Structure (SMILES) | flash point [°C]
CCC(=O)OCCC(C)C [isopentylpropanoate] | 46
CCOCCOC(C)=O [2-ethoxyethylacetate] | 51
CCC(C)C(C)C(C)CC (stereo unspecified) [3,4,5-trimethylheptane] | 31
C=C(C)C(C)(C)C [2,3,3-trimethyl-1-butene] | -17
Nc1ccccc1 [aniline] | 70
CC(C)C(C)C(C)C(C)C (stereo unspecified) [2,3,4,5-tetramethylhexane] | 31
CCCCCCCCCCCOC(C)=O [undecylacetate] | 111
CCCCCCOC(=O)CC [hexylpropanoate] | 65
C1=COCC1 [2,3-dihydrofuran] | -24
Cc1cc(C)nc(C)c1 [2,4,6-trimethylpyridine] | 54
CC1=CC(=O)CC(C)(C)C1 [isophorone] | 84
CCSSCC [diethyldisulfide] | 39
CCCCCS [1-pentanethiol] | 18
Cc1ccc(O)c(C)c1 [2,4-dimethylphenol] | 94
CCC(C)(CC)CC [3-ethyl-3-methylpentane] | 3
CC/C=C/CC [trans-3-hexene] | -25
CCc1ccc(CC)cc1 [p-diethylbenzene] | 55
C[C@H]1CC[C@@H](C)CC1 [cis-1,4-dimethylcyclohexane] | 6
CCC(C)Nc1ccccc1 (stereo unspecified) [N-sec-butylaniline] | 93

Structure (SMILES) | flash point [°C]
CCCCCCCCC(C)C [2-methyldecane] | 50
CN1CCOCC1 [N-methylmorpholine] | 14
OCC(Cl)CCl (stereo unspecified) [2,3-dichloro-1-propanol] | 93
CCCCCCCCCCCc1ccccc1 [undecylbenzene] | 144
C=CCCCC [1-hexene] | -26
C#CCCCCC [1-heptyne] | -2
CC(C)CCO [3-methyl-1-butanol] | 43
CCCCCCN [hexylamine] | 27
CC(=O)CC(=O)OC(C)(C)C [tert-butylacetoacetate] | 76
CCCC#CCCC [4-octyne] | 18
CCC1(C)CCCC1 [1-ethyl-1-methylcyclopentane] | 6
CCC(=O)O [propionicacid] | 58
CCCCCC1CCCCC1 [pentylcyclohexane] | 63
C1=CC=CC=CC=C1 [1,3,5,7-cyclooctatetraene] | 22
Cc1ccccc1N [o-toluidine] | 85
CCC(Cl)CCl (stereo unspecified) [1,2-dichlorobutane] | 27
CC=C1CC2C=CC1C2 (stereo unspecified) [5-ethylidene-2-norbornene] | 29
CCCCC(=O)OCC [ethylpentanoate] | 35
CCC(C)C(C)CC (stereo unspecified) [3,4-dimethylhexane] | 6

Structure (SMILES) | flash point [°C]
CCCCCCCN [heptylamine] | 44
Cc1ccc(F)cc1C [1,2-dimethyl-4-fluorobenzene] | 40
CCCCCCCC=O [octanal] | 51
C=CCC#N [3-butenenitrile] | 21
CCCN [propylamine] | -30
C=CC(CC)CCC (stereo unspecified) [3-ethyl-1-hexene] | 1
CC(C)CNCC(C)C [diisobutylamine] | 30
Cc1ccc(Cl)cc1 [4-chlorotoluene] | 46
CCc1cccc(Br)c1 [1-bromo-3-ethylbenzene] | 71
OCCCCCO [1,5-pentanediol] | 129
CC(C)[N+](=O)[O-] [2-nitropropane] | 28
CC(C)CCSCCC(C)C [diisopentylsulfide] | 77
NCCCN [1,3-propanediamine] | 48
CCC/C=C\CCC [cis-4-octene] | 17
CCCOC(C)=O [propylacetate] | 10
CC(C)COC=O [isobutylformate] | 4
Cc1ccc(C)c(C)c1 [1,2,4-trimethylbenzene] | 46
CCCCCCCCCC#N [decanenitrile] | 92
